Entries after “also recorded” stand apart in the source; their conditions may differ.
Experiments:
[1] = system: sigma receptor; details: cited from earlier work
[2] = system: rats with bilateral frontal cortical contusions; experiment: Histological count of ChAT positive cells in nucleus basalis magnocellularis, motor behavior and cavity size, Example 2; format: in vivo, rat; details: 4 mg/kg
Protocol: A single asterisk (*) indicates a significant difference from sham, a double asterisk (**) indicates a significant difference from both sham and lesion controls.
(§1) These injections started at one hour post-injury with an intraperitoneal injection, and then were repeated at 6, 24, 48, 72, 96, and 120 hours post-injury with subcutaneous injections.
To determine the relationship between neural cell numbers and behavior, the number of neurons and glia were counted to determine the correlative relationship between the survival of these cells and behavioral performance (FIG. 3).

[3] = system: rats with medial frontal cortical contusions; experiment: Cerebral edema (brain tissue water content) after medial frontal cortex contusion, Example 1; format: in vivo, rat; details: 4 mg/kg in cyclodextrin, i.p. 1 h and s.c. 6 h post-injury; 2, 24 and 72 hours; compared to vehicle
Protocol: Contusions to the medical frontal cortex (MFC) using a pneumatic impactor device were generated. Animals were anesthetized by injection of Nembutal (50 mg/kg, i.p) and placed in a stereotaxic apparatus, with body core temperature being maintained with a homeothermic heating blanket system. Using aseptic techniques, a midline incision was made in the scalp, and the fascia retracted to expose the cranium. A centered, bilateral craniotomy was made 3 mm anterior to bregma using a 6 mm diameter trephan. After the removal of the bone, the tip of the impactor was moved to AP:3.0; ML:0.0, checked for adequate clearance, retracted to its elevated position and lowered 3.5 mm DV, so it penetrated the cortex 2 mm. The contusion was made at a velocity of 2.25 m/s with a brain contact time of 0.5 seconds. Following this procedure, the wound cavity was thoroughly cleaned and all bleeding stopped before the fascia and scalp, were sutured closed. In all experiments, the rats' group identity was coded with regard to surgery and treatment to prevent experimenter bias during behavioral testing and later histological examination.
These experimental solutions were then diluted 1:1 with sterile water for a final concentration of HBC of 22.5%.
Sprague-Dawley male rats, approximately 90 days of age at the time of surgery, were used. Rats were housed in individual cages, with a 12:12 light:dark cycle. Food and water were provided ad libitum throughout the experiment. Control rats received sham surgeries and the rest received medial frontal cortical contusions as described in the general methods. The sham-operated controls were given vehicle (cyclodextrin). […] Treatment began one hour after the contusion was produced. […] Subsequently, a second subcutaneous injection 6 hours post-injury for absorption that is more gradual. […]
At 2, 24, and 72 hours the rats were anesthetized, decapitated, and their brains removed quickly from the cranial cavity. […] The brain was placed on a pre-weighed dish and the total weight of the sample was measured. […]

[4] = system: cell death; details: by attenuating release of inflammatory cytokines; cited from earlier work
[5] = system: rats with bilateral frontal cortical contusions; experiment: Morris water maze after MFC contusion, Example 2; format: in vivo, rat; details: 4 mg/kg
Protocol: Contusions to the MFC were carried out as described in Example 1.
as §1
The Morris Water Maize (MWM) consisted of a circular tank with a diameter of 133 cm filled with opaque water (20±1° C.; non-toxic Artista™ nontoxic white tempura paint) to a depth of 64 cm (23 cm from top of tank). A platform (11 cm×11 cm) was submerged to a depth of 2 cm and placed approximately 28 cm from the wall of the pool in the center of the northeast quadrant. The position of the platform will remain constant throughout the experiment. MWM testing began seven days after surgery. Each animal was tested for a total of 10 days (2 trials per day) in two 5-day blocks. At the start of each trial, the experimenter placed a rat into the pool at one of four starting positions, and at the same time, activate the computer-interfaced camera tracking system. Each rat was allowed to swim in the pool until it reached the platform or until 90 seconds has passed. […] The performance of each rat was measured in terms of latency to platform, length of path to platform, and swim strategy, i.e., percent of total time spent in the outer versus inner annuli.

[6] = system: GABA receptor; details: independent of the benzodiazepines; cited from earlier work

For `CC(=O)[C@H]1CC[C@H]2[C@@H]3CC[C@H]4C[C@H](O)CC[C@]4(C)[C@H]3CC[C@]12C` [allopregnanolone, allopregnan-3α, or 3β-ol-20-one], the “activity at the sigma receptor” value [1] is listed as “antagonists at the sigma receptor”, the necrotic cavity size [2] is listed as “no differences” and the spontaneous motor behavior [2] is listed as “no differences”. The “number of ChAT positive cells in the nucleus basalis magnocellularis” value ([2]; vs untreated controls) was “more remaining viable neurons in this structure than untreated controls”, the cerebral edema [3] was “significantly reduced cerebral edema” and the “cell death in vitro” value [4] was “prevent cell death in vitro”. The “Morris water maze performance vs injured rats given vehicle” value ([5]; injections from 1 h to 120 h post-injury, last three blocks of testing, p<0.05) was “improved performance on an acquisition task; also recorded: significantly outperformed the injured rats given vehicle”, the “performance scores on the spatial learning task vs other groups” value ([5]; all days of testing) was “better performance scores on the spatial learning task than the other groups” and the “modulation of the GABA receptor” value [6] was “positive modulators of the GABA receptor”.
In the case of `CC(=O)[C@H]1CC[C@H]2[C@@H]3CC[C@@H]4C[C@@H](O)CC[C@]4(C)[C@H]3CC[C@]12C` [epipregnanolone], the “activity at the sigma receptor” value [1] is listed as “antagonists at the sigma receptor”, the cerebral edema [3] is listed as “intermediate between injured controls and the allopregnanolone-treated injured rats” and the “modulation of the GABA receptor” value [6] is listed as “positive modulators of the GABA receptor”.
